Here are results for one compound from patent publication US10342790B2, “Use of ceranib-2 in the treatment of lung cancer” (ANADOLU UNIVERSITESI REKTORLUGU, priority 2017, dated 2019).

For data set [1], the system named is A549 human lung adeno-carcinoma cells. As to the kind of experiment: MTT cyto-toxicity test, A549 cells. The data set is classed as cell-based. As to conditions: 24 hours incubation, read-out: IC50 concentration in A549 lung cancer cells. On the procedure:
A549 human lung adeno-carcinoma cells have been implanted to the cell culture plates with 96 wells such that there are 2×10^3 cells per well. The cells implanted to the plate have been incubated at 37° C. and in a medium of 5% carbon dioxide. A549 cells have been incubated for 24 hours in the concentration range of 5-65 μM with synthesized ceranib-2. At the end of the duration, 20 μL MTT dye (5 mg/mL) has been added to each well and it has been incubated for 2 hours more at 37° C. After the incubation, the liquid part in each well on the plate is discharged and 200 μL DMSO has been added for dissolving the formazan salts formed by viable cells and it has been waited for 10 minutes at room temperature. The color change occurring has been read at wavelength of 570 nm on the ELx808-IU (Bio-Tek, USA) plate reader. The experiment has been repeated 3 times. Separate viability values have been calculated according to the control group for each dose.
For orientation: Tetrazolium assays rely on reduction of a dye to a coloured formazan, in cell work by metabolically active cells.

Data set [2] deals with MCF-7 human breast cancer cells. As to the kind of experiment: IC50 in MCF-7 cells (cytotoxicity). The data set is classed as cell-based. The settings on record: read-out: IC50 concentration in MCF-7 human breast cancer cells.
The subject of data set [3] is 5RP7 cells. As to the kind of experiment: IC50 in 5RP7 cells (cytotoxicity). Format: cell-based. As to conditions: read-out: IC50 concentration in 5RP7 cells.
In data set [4] the test system is NIH/3T3 cells. As to the kind of experiment: IC50 in NIH/3T3 cells (cytotoxicity). The data set is classed as cell-based. The settings on record: read-out: IC50 concentration in NIH/3T3 cells.
In data set [5] the test system is MCF-7 cell line. As to the kind of experiment: Confocal microscopy of MCF-7 cells. Format: cell-based, human. As to conditions: MCF-7 cells treated for 24 hours, acridine orange and phalloidine. An excerpt: In FIG. 1, the confocal microscopy images are provided belonging to the study made on the MCF-7 cell line. In the control cells, a tight and normal cell and cell nucleus structure are seen (FIG. 1A).
FIG. 1: Confocal electron transmission microscope image of MCF-7 cells painted with acridine orange and phalloidine.

Data set [6] concerns MCF-7 cells. As to the kind of experiment: Electron micrographs of MCF-7 cells. Format: cell-based, human. The settings on record: MCF-7 cells treated for 24 hours. The text has this:
In FIG. 2, electron micrographs of the MCF-7 cells are seen.
FIG. 2: Electron transmission micrographs of MCF-7 cells.

Data set [7] deals with A549 lung cancer cell line. As to the kind of experiment: Microscopy of structural changes in A549 cells. Format: cell-based, human. The settings on record: A549 cells treated for 24 hours. An excerpt:
In FIG. 3, the confocal microscope images of the study made on A549 type cells which is a lung cancer cell line are given.
FIG. 3: Electron transmission microscope images showing the structural changes in A549 cells.

For data set [8] the following is noted: value mentioned in the sources; read-out: IC50 concentration in cell-based experiments (in the sources); cited from earlier work.
Data set [9] relates to synergistic tumor model. As to conditions: 20-50 mg/kg; cited from earlier work.

`COc1ccc(C=CC(=O)c2c(-c3ccccc3)c3ccccc3[nH]c2=O)cc1` [ceranib-2, 3-[3-(4-methoxyphenyl)-1-oxo-2-prpen-1-yl]-4-phenyl-2(1H)-quinolinone]: the IC50 in data set [1] was 14 µM; in [2] it was 13 µM; in data set [3] it was 3 µM; in [4] it was 5 µM; in data set [8], about 28 µM. Besides, the “Cell morphology, confocal microscopy (FIG. 1)” value in [5] is “condensation is observed in the chromatin, holes are observed in the cell structure, shrunken cell nucleus is observed and fragmentizing cells are observed”. Further, in data set [6], the “Cell ultrastructure, electron micrographs (FIG. 2)” value was “the nucleus membrane is lost and the mitochondria is deformed”. In data set [7], the “Structural changes in cells, microscopy (FIG. 3)” value is “the cell nucleus is fragmentized, the cell shape is transformed from oval to round and deformations begin in the cell membrane, lipid drops are formed inside the cell, DNA fragmentizing occurs and holes occur inside the cell”. Also, in data set [9], the Toxicity in vivo entry is on record as “without leading to toxicity”. In [9], the Tumor growth result was “inhibits tumor growth”.
